Measurements from patent publication US11224591B2 (Cipla Limited, priority 2016, dated 2022).

Tests used:
[1] = Caco-2 bidirectional assay (A-B and B-A) to study the effect of piperine (P-gp inhibitor) on the permeability; format: in vitro ADME; details: human
Protocol: (§1) Caco-2 cells were cultured in MEM media with 10% serum and seeded at a density of 75000 cells per mL and cultured for 21 days in a 24-well trans-well plate at 37° C., 5% CO2. The monolayer integrity was checked intermittently (Day 0-21) using Trans Epithelial Electric Resistance (TEER). Cells were treated with drugs as follows:
(§2) 2) Bidirectional Assay (A-B and B-A) to Study the Effect of Piperine (P-Gp Inhibitor) on the Permeability
(§3) For A-B, 400 μL samples were added to the wells as per the plate setup to the apical side in duplicates with 800 μL HBSS pH 7.4 in the basal wells. Samples were collected at 60, 90 and 120 minutes from the basal side. Mass balance samples at 0 and 120 minutes were collected from the apical side.
(§4) For B-A, 800 μL of the respective dilutions were added to the basal side in duplicates with 400 μL HBSS pH 7.4 in the apical wells. Samples were collected at 60, 90 and 120 minutes from the apical side. Mass balance samples at 0 and 120 minutes were collected from the basal side. The sample were analyzed on LCMS-MS.
(§5) At the end of the experiment the monolayer integrity was checked using and Lucifer yellow, calculating the % rejection of Lucifer yellow by incubating cells with 100 μg/mL Lucifer.
(§6) The apparent permeability (Papp) in units per second can be calculated by using the following equation,
(§7) For Lucifer yellow, % Lucifer Yellow Passage=[RFU(test)−RFU(blank)/RFU(equilibrium)−RFU(blank)]*100

[2] = test system: Caco-2 cells; assay: as above; format: in vitro ADME; details: across the caco-2 monolayer; conclusion in words
Protocol: as §1, §2, §3, §4, §5, §6, §7

[3] = Digoxin 10 μM, Caco-2 monolayer, HBSS pH 7.4

Row | efflux ratio at 120 min, 10 μM ([1]; Caco-2, pH 7.4, Digoxin 10 μM, Papp B-A/Papp A-B) | Papp A→B at 120 min, 10 μM [1, 3] [×10⁻⁶ cm/s] | Papp B→A at 120 min, 10 μM [1, 3] [×10⁻⁶ cm/s] | Papp A→B at 120 min, 30 μM ([1]; Caco-2, pH 7.4) [×10⁻⁶ cm/s] | Papp B→A at 120 min, 30 μM ([1]; Caco-2, pH 7.4) [×10⁻⁶ cm/s] | Permeability classification [2] | SMILES
1 | 12 | 0.829 | 9.97 | – | – | – | C[C@H]1O[C@@H](O[C@H]2[C@@H](O)C[C@H](O[C@H]3[C@@H](O)C[C@H](O[C@H]4CC[C@@]5(C)[C@H](CC[C@@H]6[C@@H]5C[C@@H](O)[C@]5(C)[C@@H](C7=CC(=O)OC7)CC[C@]65O)C4)O[C@@H]3C)O[C@@H]2C)C[C@H](O)[C@@H]1O [Digoxin]
2 | – | – | – | 1.08 | 6.17 | high | CO[C@H]1/C=C/O[C@@]2(C)Oc3c(C)c(O)c4c(O)c(c5c(nc6cc(C)ccn65)c4c3C2=O)NC(=O)/C(C)=C\C=C\[C@H](C)[C@H](O)[C@@H](C)[C@@H](O)[C@@H](C)[C@H](OC(C)=O)[C@@H]1C [Rifaximin, [(2S,16Z,18E,20S,21S,22R,23R,24R,25S,26S,27S,28E)-5,6,21,23,25-pentahydroxy-27-methoxy-2,4,11,16,20,22,24,26-octamethyl-2,7 (epoxypentadeca-[1,11,13]trienimino)benzofuro[4,5-e]pyrido[1,2-a]-benzimidazole 1,15(2H)-dione,25-acetate]]
